Experimental data as given in patent publication EP0620225B1, “Cephalosporin derivatives” (Basilea Pharmaceutica AG, priority 1993, dated 1994).
Values after ≈ are worked out from the molar mass of the structure shown.

Legend:
Acinetobacter sp.51-156 = assay: Antibacterial spectrum (MIC), agar dilution; type: cell-based; conditions: SP.51156, read-out: MIC
Method: (§1) In vitro activity was determined by minimum inhibitory concentration in a microorganism spectum by the agar dilution method in Mueller Hinton agar.

B.fragilis ATCC25285 = assay: Antibacterial spectrum (MIC), agar dilution; type: cell-based; conditions: Bacteroides fragilis, read-out: MIC
Method: as §1

C.difficile ZH1 = assay: Antibacterial spectrum (MIC), agar dilution; type: cell-based; conditions: Clostridioides difficile, read-out: MIC
Method: as §1

C.freundii 43 = assay: Antibacterial spectrum (MIC), agar dilution; type: cell-based; conditions: Citrobacter freundii, read-out: MIC
Method: as §1

C.freundii 902 = assay: Antibacterial spectrum (MIC), agar dilution; type: cell-based; conditions: Citrobacter freundii, read-out: MIC
Method: as §1

E.cloacae 908R = assay: Antibacterial spectrum (MIC), agar dilution; type: cell-based; conditions: Enterobacter cloacae, read-out: MIC
Method: as §1

E.cloacae 908SSi = assay: Antibacterial spectrum (MIC), agar dilution; type: cell-based; conditions: Enterobacter cloacae, read-out: MIC
Method: as §1

E.coli 25922 = assay: Antibacterial spectrum (MIC), agar dilution; type: cell-based; conditions: Escherichia coli, read-out: MIC
Method: as §1

E.faecalis 6 = assay: Antibacterial spectrum (MIC), agar dilution; type: cell-based; conditions: Enterococcus faecalis, read-out: MIC
Method: as §1

H.influenzae 1 = assay: Antibacterial spectrum (MIC), agar dilution; type: cell-based; conditions: Haemophilus influenzae, read-out: MIC
Method: as §1

K.pneumoniae 418 = assay: Antibacterial spectrum (MIC), agar dilution; type: cell-based; conditions: Klebsiella pneumoniae, read-out: MIC
Method: as §1

L.monocytogenes BK23 = assay: Antibacterial spectrum (MIC), agar dilution; type: cell-based; conditions: Listeria monocytogenes, read-out: MIC
Method: as §1

M.catarrhalis RA21 = assay: Antibacterial spectrum (MIC), agar dilution; type: cell-based; conditions: Moraxella catarrhalis, read-out: MIC
Method: as §1

M.morganii 6H-137 = assay: Antibacterial spectrum (MIC), agar dilution; type: cell-based; conditions: Morganella morganii, 6H137, read-out: MIC
Method: as §1

N.meningitidis 69480 = assay: Antibacterial spectrum (MIC), agar dilution; type: cell-based; conditions: Neisseria meningitidis, read-out: MIC
Method: as §1

P.aeruginosa 27853 = assay: Antibacterial spectrum (MIC), agar dilution; type: cell-based; conditions: Pseudomonas aeruginosa, read-out: MIC
Method: as §1

P.asaccharolyticus 29743 = assay: Antibacterial spectrum (MIC), agar dilution; type: cell-based; conditions: Peptoniphilus asaccharolyticus, read-out: MIC
Method: as §1

P.mirabilis 2117 = assay: Antibacterial spectrum (MIC), agar dilution; type: cell-based; conditions: Proteus mirabilis, read-out: MIC
Method: as §1

P.vulgaris 1028 = assay: Antibacterial spectrum (MIC), agar dilution; type: cell-based; conditions: Proteus vulgaris, read-out: MIC
Method: as §1

S.agalactiae QK44 = assay: Antibacterial spectrum (MIC), agar dilution; type: cell-based; conditions: Streptococcus agalactiae, read-out: MIC
Method: as §1

S.aureus 6538 = assay: Antibacterial spectrum (MIC), agar dilution; type: cell-based; conditions: Staphylococcus aureus, read-out: MIC
Method: as §1

S.aureus 734 MRSA = assay: Antibacterial spectrum (MIC), agar dilution; type: cell-based; conditions: Staphylococcus aureus, read-out: MIC
Method: as §1

S.marcescens 69438 = assay: Antibacterial spectrum (MIC), agar dilution; type: cell-based; conditions: Serratia marcescens, read-out: MIC
Method: as §1

S.pneumoniae Q19 = assay: Antibacterial spectrum (MIC), agar dilution; type: cell-based; conditions: Streptococcus pneumoniae, read-out: MIC
Method: as §1

S.pyogenes B15 = assay: Antibacterial spectrum (MIC), agar dilution; type: cell-based; conditions: Streptococcus pyogenes, read-out: MIC
Method: as §1

S.viridans group 016 = assay: Antibacterial spectrum (MIC), agar dilution; type: cell-based; conditions: Streptococcus viridans, read-out: MIC
Method: as §1

X.maltophilia 1AC739 = assay: Antibacterial spectrum (MIC), agar dilution; type: cell-based; conditions: Stenotrophomonas maltophilia, read-out: MIC
Method: as §1

S.aureus MSSA = assay: In vitro activity against selected species (MIC50, MIC90, range); type: cell-based; conditions: Staphylococcus aureus, medium MHB (Mueller Hinton Broth); for MIC: MIC range
S.pneumoniae PEN-R = assay: as above; type: cell-based; conditions: Streptococcus pneumoniae; for MIC: MIC range
S.viridans group = assay: as above; type: cell-based
E.faecalis [1] = assay: as above; type: cell-based; conditions: Enterococcus faecalis, medium MHA
Method: as §1

S.aureus MRSA = assay: as above; type: cell-based; conditions: Staphylococcus aureus, medium MHA (Mueller Hinton Agar) +NaCl
Method: as §1

E.faecium = assay: In vitro activity against selected species (MIC50, range); type: cell-based; conditions: Enterococcus faecium, medium MHA
Method: as §1

M.catarrhalis = assay: In vitro activity against selected species (MIC50, MIC90, range); type: cell-based; conditions: Moraxella catarrhalis, medium IsoB
Escherichia coli 25922 = assay: Efficacy against systemic infections (septicemia) in mice; type: in vivo; conditions: 96 h, survival day 4
Method: (§2) Septicemia was induced in outbred Swiss albino mice (Jbm MoRo [specific pathogen free]; weight 16 to 20 g, Biomedical Research Laboratories, Füllinsdorf, Switzerland). Mice were infected by intraperitoneal injection of diluted overnight cultures of the test organisms. Bacterial challenge doses were 4-10 times the number of organisms required to kill 50% of untreated animals within 48 h. The test compounds were administered p.o. or s.c. 1 and 3 h after the bacterial challenge. To treat the infection with Pseudomonas aeruginosa BA an additional dose was given 5 h after challenge. Control and treatment groups at each dose were composed of five mice each. The 50% effective dose (ED50, in milligrams per kilogram) was calculated by probit analysis as described by Finney (Finney, D.J. 1978, Statistical method in biological assay, 3rd ed. Charles Griffin & Co., Ltd., London), from the survival rates on day 4 after infection.

S.aureus Smith = assay: as above; type: in vivo; conditions: Staphylococcus aureus, 96 h, sc 1 and 3 h after challenge, survival day 4
Method: as §2

E.faecalis [2] = assay: In vitro activity against selected species (MIC50, MIC90, range); type: cell-based; conditions: Enterococcus faecalis, medium IsoB
[3] = medium IsoB (Isosensitest Broth)
[4] = Escherichia coli 25922, po (orally) 1 and 3 h after challenge
[5] = Escherichia coli, E.coli 25922, sc 1 and 3 h after challenge

C=CC1=C(C(=O)O)N2C(=O)[C@@H](NC(=O)/C(=N\O)c3csc(N)n3)[C@H]2SC1 [Cefdinir, reference compound]
MIC (Acinetobacter sp.51-156): > 32 µg/mL
MIC (B.fragilis ATCC25285): 32 µg/mL (≈ 80.9 µM)
MIC (C.difficile ZH1): 32 µg/mL (≈ 80.9 µM)
MIC (C.freundii 43): > 32 µg/mL
MIC (C.freundii 902): 16 µg/mL (≈ 40.5 µM)
MIC (E.cloacae 908R): > 32 µg/mL
MIC (E.cloacae 908SSi): 32 µg/mL (≈ 80.9 µM)
MIC (E.coli 25922): 0.25 µg/mL (≈ 0.632 µM)
MIC (E.faecalis 6): 8 µg/mL (≈ 20.2 µM)
MIC (H.influenzae 1): 0.5 µg/mL (≈ 1.26 µM)
MIC (K.pneumoniae 418): 0.12 µg/mL (≈ 0.303 µM)
MIC (L.monocytogenes BK23): 16 µg/mL (≈ 40.5 µM)
MIC (M.catarrhalis RA21): 1 µg/mL (≈ 2.53 µM)
MIC (M.morganii 6H-137): 8 µg/mL (≈ 20.2 µM)
MIC (N.meningitidis 69480): ≤ 0.06 µg/mL
MIC (P.aeruginosa 27853): > 32 µg/mL
MIC (P.asaccharolyticus 29743): ≤ 0.12 µg/mL
MIC (P.mirabilis 2117): 0.12 µg/mL (≈ 0.303 µM)
MIC (P.vulgaris 1028): 1 µg/mL (≈ 2.53 µM)
MIC (S.agalactiae QK44): 0.25 µg/mL (≈ 0.632 µM)
MIC (S.aureus 6538): 0.5 µg/mL (≈ 1.26 µM)
MIC (S.aureus 734 MRSA): > 32 µg/mL
MIC (S.marcescens 69438): 16 µg/mL (≈ 40.5 µM)
MIC (S.pneumoniae Q19): 0.25 µg/mL (≈ 0.632 µM)
MIC (S.pyogenes B15): ≤ 0.06 µg/mL
MIC (S.viridans group 016): 2 µg/mL (≈ 5.06 µM)
MIC (X.maltophilia 1AC739): > 32 µg/mL
MIC (S.aureus MSSA): 0.5 to 4 µg/mL (≈ 1.26 to 10.1 µM)
MIC50 (S.aureus MSSA): 1 µg/mL (≈ 2.53 µM)
MIC90 (S.aureus MSSA): 2 µg/mL (≈ 5.06 µM)
MIC (S.pneumoniae PEN-R; [3]): 0.1 to 8 µg/mL (≈ 0.253 to 20.2 µM)
MIC (S.pneumoniae PEN-R; medium IsoB + 20% serum): 0.1 to 8 µg/mL
MIC50 (S.pneumoniae PEN-R; [3]): 2 µg/mL (≈ 5.06 µM)
MIC90 (S.pneumoniae PEN-R; [3]): 4 µg/mL (≈ 10.1 µM)
MIC50 (S.pneumoniae PEN-R; medium IsoB + 20% serum): 4 µg/mL
Range (S.viridans group; MIC range, medium IsoB): <0.12 to 128 µg/mL
MIC50 (S.viridans group; Streptococcus viridans): 8 µg/mL (≈ 20.2 µM)
MIC90 (S.viridans group; Streptococcus viridans): 16 µg/mL (≈ 40.5 µM)
MIC (E.faecalis [1]; MIC range): 4 to 32 µg/mL (≈ 10.1 to 80.9 µM)
MIC50 (E.faecalis [1]): 8 µg/mL (≈ 20.2 µM)
MIC90 (E.faecalis [1]): 16 µg/mL (≈ 40.5 µM)
MIC50 (S.aureus MRSA): > 32 µg/mL
MIC90 (S.aureus MRSA): > 32 µg/mL
MIC50 (E.faecium): 16 µg/mL (≈ 40.5 µM)
MIC (M.catarrhalis; MIC range): 0.25 to 0.5 µg/mL (≈ 0.632 to 1.26 µM)
MIC50 (M.catarrhalis): 0.25 µg/mL (≈ 0.632 µM)
MIC90 (M.catarrhalis): 0.5 µg/mL (≈ 1.26 µM)
ED50 (Escherichia coli 25922; [4]): 1.8 mg/kg
ED50 (Escherichia coli 25922; [5]): < 1 mg/kg
ED50 (S.aureus Smith): < 1 mg/kg
MIC (E.faecalis [2]; MIC range): 1 to 64 µg/mL (≈ 2.53 to 162 µM)
MIC50 (E.faecalis [2]): 8 µg/mL (≈ 20.2 µM)
MIC90 (E.faecalis [2]): 32 µg/mL (≈ 80.9 µM)

CO/N=C(\C(=O)N[C@@H]1C(=O)N2C(C(=O)O)=C(CSc3nc(=O)c(=O)[nH]n3C)CS[C@H]12)c1csc(N)n1 [Ceftriaxone, [6R-[6 α,7 β(Z)]]-7-[[(2-Amino-4-thiazolyl)(methoxyimino)acetyl]amino]-8-oxo-3-[[(1,2,5,6-tetrahydro-2-methyl-5,6-dioxo-1,2,4-triazin-3-yl)thio]methyl]-5-thia-1-azabicyclo[4.2.0]oct-2-ene-2-carboxylic acid, reference compound]
MIC (Acinetobacter sp.51-156): 32 µg/mL (≈ 57.7 µM)
MIC (B.fragilis ATCC25285): 16 µg/mL (≈ 28.9 µM)
MIC (C.difficile ZH1): > 32 µg/mL
MIC (C.freundii 43): 32 µg/mL (≈ 57.7 µM)
MIC (C.freundii 902): 0.25 µg/mL (≈ 0.451 µM)
MIC (E.cloacae 908R): > 32 µg/mL
MIC (E.cloacae 908SSi): 0.25 µg/mL (≈ 0.451 µM)
MIC (E.coli 25922): ≤ 0.06 µg/mL
MIC (E.faecalis 6): > 32 µg/mL
MIC (H.influenzae 1): < 0.06 µg/mL
MIC (K.pneumoniae 418): ≤ 0.06 µg/mL
MIC (L.monocytogenes BK23): > 16 µg/mL
MIC (M.catarrhalis RA21): 1 µg/mL (≈ 1.8 µM)
MIC (M.morganii 6H-137): ≤ 0.06 µg/mL
MIC (N.meningitidis 69480): < 0.01 µg/mL
MIC (P.aeruginosa 27853): 16 µg/mL (≈ 28.9 µM)
MIC (P.asaccharolyticus 29743): 0.25 µg/mL (≈ 0.451 µM)
MIC (P.mirabilis 2117): ≤ 0.06 µg/mL
MIC (P.vulgaris 1028): 0.12 µg/mL (≈ 0.216 µM)
MIC (S.agalactiae QK44): ≤ 0.06 µg/mL
MIC (S.aureus 6538): 4 µg/mL (≈ 7.21 µM)
MIC (S.aureus 734 MRSA): > 32 µg/mL
MIC (S.marcescens 69438): 0.25 µg/mL (≈ 0.451 µM)
MIC (S.pneumoniae Q19): ≤ 0.06 µg/mL
MIC (S.pyogenes B15): ≤ 0.06 µg/mL
MIC (S.viridans group 016): 0.25 µg/mL (≈ 0.451 µM)
MIC (X.maltophilia 1AC739): > 32 µg/mL
MIC (S.aureus MSSA): 2 to 16 µg/mL (≈ 3.61 to 28.9 µM)
MIC50 (S.aureus MSSA): 4 µg/mL (≈ 7.21 µM)
MIC90 (S.aureus MSSA): 16 µg/mL (≈ 28.9 µM)
MIC (S.pneumoniae PEN-R; [3]): 0.1 to 2 µg/mL (≈ 0.18 to 3.61 µM)
MIC (S.pneumoniae PEN-R; medium IsoB + 20% serum): 1 to 8 µg/mL
MIC50 (S.pneumoniae PEN-R; [3]): 0.5 µg/mL (≈ 0.902 µM)
MIC90 (S.pneumoniae PEN-R; [3]): 1 µg/mL (≈ 1.8 µM)
MIC50 (S.pneumoniae PEN-R; medium IsoB + 20% serum): 4 µg/mL
MIC50 (E.faecalis [1]): > 32 µg/mL
MIC90 (E.faecalis [1]): > 32 µg/mL
MIC (S.aureus MRSA; MIC range): > 32 µg/mL
MIC50 (S.aureus MRSA): > 32 µg/mL
MIC90 (S.aureus MRSA): > 32 µg/mL
MIC (E.faecium; MIC range): > 32 µg/mL
MIC50 (E.faecium): > 32 µg/mL
ED50 (Escherichia coli 25922; [4]): 0.9 mg/kg
ED50 (Escherichia coli 25922; [5]): ≤ 0.01 mg/kg
ED50 (S.aureus Smith): < 2 mg/kg
